“And” between values parts separate entries of the source, which are not always exact repeats. Identical values can stand only once. Counter-ions that a name gives are not always drawn. Like-named read-outs stand apart in the source and are kept apart here.
System: C. elegans
[1] = Table S2, C. elegans SS assay, 110 μM, 0 h, averages of 4 data points
[2] = Table S2, C. elegans SS assay, 110 μM, 24 h, averages of 4 data points

O=c1cc(-c2ccc(O)cc2)oc2cc(O)ccc12 [7,4'‐Dihydroxyflavone]
Percentage of motility inhibition 0 h [1]: 5%
Percentage of motility inhibition 24 h [2]: 0%

C=C(C)[C@@H]1CC[C@]2(C(=O)O)CC[C@]3(C)[C@H](CC[C@@H]4[C@@]5(C)CC[C@H](O[C@@H]6OC[C@H](O)[C@H](O)[C@H]6O[C@@H]6O[C@@H](C)[C@H](O)[C@@H](O)[C@H]6O)[C@@](C)(CO)[C@@H]5CC[C@]43C)[C@@H]12 [Pulchinenoside A]
Percentage of motility inhibition 0 h [1]: 15%
Percentage of motility inhibition 24 h [2]: 7%

CC[C@H]1CN2CCc3cc(OC)c(OC)cc3[C@@H]2C[C@@H]1C[C@H]1NCCc2cc(O)c(OC)cc21.Cl.Cl [Cephaeline (dihydrochloride)]
Percentage of motility inhibition 0 h [1]: 18%
Percentage of motility inhibition 24 h [2]: 4%

COc1ccc(-c2coc3cc(O[C@@H]4O[C@H](CO)[C@@H](O)[C@H](O)[C@H]4O)c(OC)c(O)c3c2=O)cc1O [Iristectorin A]
Percentage of motility inhibition 0 h [1]: 0%
Percentage of motility inhibition 24 h [2]: 2%

O=C(/C=C/c1ccc(O)c(O)c1)OC1(C(=O)O)C[C@@H](O)C(O)[C@H](O)C1 (stereo partly shown) [1‐Caffeoylquinic acid]
Percentage of motility inhibition 0 h [1]: 24%
Percentage of motility inhibition 24 h [2]: 0%

CC1(C)S[C@@H]2[C@H](NC(=O)[C@H](N)c3ccccc3)C(=O)N2[C@H]1C(=O)[O-].[Na+] [Ampicillin (sodium)]
Percentage of motility inhibition 0 h [1]: 24%
Percentage of motility inhibition 24 h [2]: 1%

CCC(CC)[C@H](NC(C)=O)[C@@H]1[C@H](O)[C@@H](C(=O)O)C[C@H]1NC(=N)N.O.O.O [Peramivir (trihydrate)]
Percentage of motility inhibition 0 h [1]: 2%
Percentage of motility inhibition 24 h [2]: 0%

O=C(O[C@H]1Cc2c(O)cc(O)cc2O[C@@H]1c1ccc(O)c(O)c1)c1cc(O)c(O)c(O)c1 [(‐)‐Catechin gallate]
Percentage of motility inhibition 0 h [1]: 3%
Percentage of motility inhibition 24 h [2]: 0%

NC(=O)c1ccc[n+]([O-])c1 [Nicotinamide N‐oxide]
Percentage of motility inhibition 0 h (110 µM): 14%
Percentage of motility inhibition 24 h (110 µM): 32%

COc1cc2c(cc1OC)-c1c(C)c3ccc(OC)c(OC)c3c[n+]1CC2.[Cl-] [Dehydrocorydaline (chloride)]
Percentage of motility inhibition 0 h [1]: 0%
Percentage of motility inhibition 24 h [2]: 0%

CC1=C[C@@H]2C(=O)[C@]3(C=C(C)[C@H](O)[C@@]3(O)[C@@H]1O)[C@H](C)C[C@@H]1[C@H]2C1(C)C [20-Deoxyingenol]
Percentage of motility inhibition 0 h [1]: 0%
Percentage of motility inhibition 24 h [2]: 21%

C=C[C@]1(C)C=C2CC[C@H]3[C@@](C)(CCC[C@@]3(C)C(=O)O)[C@@H]2CC1 [Continentalic acid]
Percentage of motility inhibition 0 h [1]: 36%
Percentage of motility inhibition 24 h [2]: 24%

CN1[C@@H]2CC[C@H]1CC(OC(=O)[C@H](CO)c1ccccc1)C2.CN1[C@@H]2CC[C@H]1CC(OC(=O)[C@H](CO)c1ccccc1)C2.O=S(=O)(O)O (stereo partly drawn) [L-Hyoscyamine (sulfate)]
Percentage of motility inhibition 0 h [1]: 1%
Percentage of motility inhibition 24 h [2]: 6%

Epimedin A
Percentage of motility inhibition 0 h [1]: 13%
Percentage of motility inhibition 24 h [2]: 13%

CS(=O)(=O)O.C[C@H]1COc2c(C3(N)CC3)c(F)cc3c(=O)c(C(=O)O)cn1c23 [Pazufloxacin (mesylate)]
Percentage of motility inhibition 0 h [1]: 28%
Percentage of motility inhibition 24 h [2]: 2%

CC(C)=CCC[C@@](C)(O)[C@H]1CC[C@]2(C)[C@@H]1[C@H](O)C[C@@H]1[C@@]3(C)CC[C@H](O)C(C)(C)[C@@H]3[C@@H](O[C@@H]3O[C@H](CO)[C@@H](O)[C@H](O)[C@H]3O[C@@H]3O[C@@H](C)[C@H](O)[C@@H](O)[C@H]3O)C[C@]12C [20(R)-Ginsenoside Rg2]
Percentage of motility inhibition 0 h [1]: 0%
Percentage of motility inhibition 24 h [2]: 8%

COc1ccc2c(c1)[nH]c1c(C)nccc12.Cl [Harmine (hydrochloride)]
Percentage of motility inhibition 0 h [1]: 22%
Percentage of motility inhibition 24 h [2]: 11%

C[N+](C)(C)CCOP(=O)([O-])OP(=O)([O-])OC[C@H]1O[C@@H](n2ccc(N)nc2=O)[C@H](O)[C@@H]1O.[Na+] [Citicoline (sodium)]
Percentage of motility inhibition 0 h [1]: 4%
Percentage of motility inhibition 24 h [2]: 0%

O=C1N[C@@H](Cc2ccc(O)cc2)C(=O)N2CCC[C@@H]12 [Maculosin]
Percentage of motility inhibition 0 h [1]: 0%
Percentage of motility inhibition 24 h [2]: 0%

COc1ccc(-c2oc3c(CC=C(C)C)c(O)cc(O)c3c(=O)c2O[C@@H]2O[C@@H](C)[C@H](O)[C@@H](O)[C@H]2O[C@@H]2O[C@H](CO)[C@@H](O)[C@H](O)[C@H]2O)cc1 [Sagittatoside A]
Percentage of motility inhibition 0 h [1]: 43%
Percentage of motility inhibition 24 h [2]: 12%

CC(=O)O[C@@]12CO[C@@H]1C[C@H](O)[C@@]1(C)C(=O)[C@H](O)C3=C(C)[C@@H](OC(=O)[C@H](O)[C@@H](NC(=O)c4ccccc4)c4ccccc4)C[C@@](O)([C@@H](OC(=O)c4ccccc4)[C@H]21)C3(C)C [10-Deacetyltaxol]
Percentage of motility inhibition 0 h [1]: 17%
Percentage of motility inhibition 24 h [2]: 0%

COc1c(O[C@@H]2O[C@H](CO)[C@@H](O)[C@H](O)[C@H]2O)cc2oc(-c3ccc(O)cc3)cc(=O)c2c1O [Homoplantaginin]
Percentage of motility inhibition 0 h [1]: 19%
Percentage of motility inhibition 24 h [2]: 5%

CCOC(=O)c1c(CSc2ccccc2)n(C)c2cc(Br)c(O)c(CN(C)C)c12.Cl [Arbidol (hydrochloride)]
Percentage of motility inhibition 0 h [1]: 33%
Percentage of motility inhibition 24 h [2]: 3%

CC[C@@H](C(=O)[C@@H](C)[C@@H](O)[C@H](C)[C@@H]1O[C@@H]([C@@H](CC)C(=O)O)CC[C@@H]1C)[C@H]1O[C@]2(C=C[C@@H](O)[C@]3(CC[C@@](C)([C@H]4CC[C@](O)(CC)[C@H](C)O4)O3)O2)[C@H](C)C[C@@H]1C [Salinomycin (sodium salt)]
Percentage of motility inhibition 0 h [1]: 28%
Percentage of motility inhibition 24 h [2]: 18%

C[C@H]1CC[C@H]2[C@H](C)[C@H]3CC[C@@H]4[C@@H](C[C@H]5[C@H]4CC(=O)[C@H]4C[C@@H](O)CC[C@@]45C)[C@@H]3CN2C1 [Ebeiedinone]
Percentage of motility inhibition 0 h [1]: 0%
Percentage of motility inhibition 24 h [2]: 4%

CC(C)(O)[C@@H]1CC[C@](C)([C@H]2[C@@H](O)C[C@@]3(C)[C@@H]4C[C@H](O[C@@H]5O[C@H](CO)[C@@H](O)[C@H](O)[C@H]5O)[C@H]5C(C)(C)[C@@H](O[C@@H]6OC[C@@H](O)[C@H](O)[C@H]6O[C@@H]6O[C@H](CO)[C@@H](O)[C@H](O)[C@H]6O)CC[C@@]56C[C@@]46CC[C@]23C)O1 [Astragaloside VI]
Percentage of motility inhibition 0 h [1]: 3%
Percentage of motility inhibition 24 h [2]: 0%

CC(C)=CCC[C@@H](C)CCO [(R)-Citronellol]
Percentage of motility inhibition 0 h [1]: 1%
Percentage of motility inhibition 24 h [2]: 14%

CCCCCCCCCCCCCCCCCCCCCCO [1-Docosanol]
Percentage of motility inhibition 0 h [1]: 7%
Percentage of motility inhibition 24 h [2]: 8%

C[C@H](CC[C@@H](O[C@@H]1O[C@H](CO)[C@@H](O)[C@H](O)[C@H]1O[C@H]1O[C@@H](CO)[C@H](O)[C@@H](O)[C@@H]1O)C(C)(C)O)C1CC[C@@]2(C)C3CC=C4C(CC[C@H](O)C4(C)C)[C@]3(C)C(=O)C[C@]12C (stereo partly shown) [11-Oxomogroside IIa]
Percentage of motility inhibition 0 h [1]: 0%
Percentage of motility inhibition 24 h [2]: 0%

COc1cc2c3c(c1O)-c1ccccc1C[C@@H]3N(C)CC2 [Lirinidine]
Percentage of motility inhibition 0 h [1]: 0%
Percentage of motility inhibition 24 h [2]: 6%

COc1ccc([C@@H]2CC(=O)c3c(O)cc(O[C@@H]4O[C@H](CO[C@@H]5O[C@@H](C)[C@H](O)[C@@H](O)[C@H]5O)[C@@H](O)[C@H](O)[C@H]4O)cc3O2)cc1O [Hesperidin]
Percentage of motility inhibition 24 h [2]: 2% and 0%

Cl.NC12CC3CC(CC(C3)C1)C2 [Amantadine (hydrochloride)]
Percentage of motility inhibition 0 h [1]: 42%
Percentage of motility inhibition 24 h [2]: 2%

COc1ccc2cc3[n+](cc2c1O)CCc1cc2c(cc1-3)OCO2.[Cl-] [Berberrubine (chloride)]
Percentage of motility inhibition 0 h [1]: 0%
Percentage of motility inhibition 24 h [2]: 0%

O=Cc1c[nH]c2cccc(O)c12 [4‐Hydroxy‐1H‐indole‐3‐carbaldehyde]
Percentage of motility inhibition 0 h [1]: 23%
Percentage of motility inhibition 24 h [2]: 5%

CC(=O)O[C@@]12CO[C@@H]1C[C@@H](O)[C@@]1(C)C(=O)[C@H](O)C3=C(C)[C@@H](OC(=O)[C@H](O)[C@@H](NC(=O)c4ccccc4)c4ccccc4)C[C@@](O)([C@@H](OC(=O)c4ccccc4)[C@H]21)C3(C)C [7-Epi 10-desacetyl paclitaxel]
Percentage of motility inhibition 0 h [1]: 0%
Percentage of motility inhibition 24 h [2]: 26%

O[C@H]1[C@H]2c3cc4c(cc3CN3CC[C@H](C[C@@H]1O)[C@H]23)OCO4 [Dihydrolycorine]
Percentage of motility inhibition 0 h [1]: 0%
Percentage of motility inhibition 24 h [2]: 0%

C[C@H](CC[C@@H](O[C@@H]1O[C@H](CO)[C@@H](O)[C@H](O)[C@H]1O[C@@H]1O[C@H](CO)[C@@H](O)[C@H](O)[C@H]1O)C(C)(C)O)[C@H]1CC[C@@]2(C)[C@H]3CC=C4[C@@H](CC[C@H](O[C@@H]5O[C@H](CO[C@@H]6O[C@H](CO)[C@@H](O)[C@H](O)[C@H]6O)[C@@H](O)[C@H](O)[C@H]5O)C4(C)C)[C@]3(C)[C@H](O)C[C@]12C [Mogroside IV]
Percentage of motility inhibition 0 h [1]: 0%
Percentage of motility inhibition 24 h [2]: 43%
